# Measured values published in patent EP3345917A1, “ANTIPROTOZOAL COMPOUNDS” (Bacoba AG, priority 2017, dated 2018).
# Values joined by “and” are separate entries in the source; they are usually repeats but may differ in a detail not shown here. Identical values can stand only once. “Also recorded” adds a separate entry of the source. Non-standard residues stand in square brackets, D forms with d. Residues, ends and D or L forms follow the SMILES beside them. *: point of attachment. X10 = O=C(c1ccccc1)[C@H]1CCCC[C@H]1C(=O)*; NH((S)CH(Me)CH2NMe2) = C[C@@H](CN(C)C)N*; NH(1-CH2NMe2-cBu) = CN(C)CC1(N*)CCC1; Gly(octyl) = CCCCCCCC[C@H](N)C(=O)O; Oxazole4CO(2-Me) = Cc1nc(C(=O)*)co1; hCha = N[C@@H](CCC1CCCCC1)C(=O)O; X4 = O=C(C1CCc2ccccc2C1)*; Aib = CC(C)(N)C(=O)O; βAla = NCCC(=O)O
# Assays:
# [1] = Cytotoxicity assay on L6-cells (Alamar Blue); conditions: rat, Cytotox L6, Cytotoxicity against rat myoblast cells (L6)
# [2] = test system: Trypanosoma brucei rhodesiense (STIB 900 strain); assay: Alamar Blue assay against Trypanosoma brucei rhodesiense grown in axenic medium; format: cell-based; conditions: In vitro inhibition, read-out: T.b.rhod.
# How it was run: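 T. b. rhodesiense STIB 900 cultured in axenic medium and exposed to samples in an Alamar Blue viability assay, run in triplicate. IC50 calculated from the readout; melarsoprol served as reference drug.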
# [3] = test system: Plasmodium falciparum; assay: 3H-hypoxanthine incorporation assay against Plasmodium falciparum; format: cell-based; conditions: In vitro inhibition, read-out: P.falc NF5
# Method: (§1) Tests were done in triplicate.
# IC50 values were calculated by linear interpolation.
# [4] = test system: Trypanosoma cruzi trypomastigote forms (Tulahuen strain); assay: Intracellular Trypanosoma cruzi assay in L6-cells, beta-galactosidase/CPRG readout; format: cell-based; conditions: In vitro inhibition, read-out: T.cruzi.
# How it was run: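 L6 rat myoblasts infected with Tulahuen C2C4 LacZ T. cruzi; after incubation, CPRG/Nonidet substrate added and colour developed 2–6 h. Absorbance at 540 nm; IC50 calculated; triplicate tests.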
# [5] = test system: intracellular Leishmania donovani (L.don. InMac); assay: Intracellular Leishmania donovani assay (L.don. InMac); format: cell-based; conditions: In vitro inhibition
# Excerpt: as §1
# [6] = test system: Axenically grown Leishmania donovani amastigotes (strain MHOM/ET/67/L82); assay: Axenic Leishmania donovani amastigote resazurin assay; format: cell-based; conditions: In vitro inhibition, read-out: L.don. ax
# How it was run: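 Strain MHOM/ET/67/L82 amastigotes grown axenically and tested in triplicate by resazurin assay. Plates developed 2-4 hours, fluorescence read at 536 nm excitation/588 nm emission and expressed as percentage of negative control.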
# [7] = test system: Trypanosoma brucei brucei; assay: Acute mouse sleeping sickness model (in vivo antitrypanosomal activity); conditions: for Mean day of relapse / Mean day of survival / Day of relapse / Parasitaemia day 7 / Parasitaemia day 10 / Parasitaemia day 14 / Parasitaemia day 17 / Parasitaemia day 21 / Parasitaemia day 24 / Parasitaemia day 28 / Parasitaemia day 31 / Survival days: 4 treatment days; for Mean day of relapse / Mean day of survival / animals surviving until day 31: group of four mice; for Day of relapse / Parasitaemia day 7 / Parasitaemia day 10 / Parasitaemia day 14 / Parasitaemia day 17 / Parasitaemia day 21 / Parasitaemia day 24 / Parasitaemia day 28 / Parasitaemia day 31 / Survival days: individual mice; for parasitaemia on day 7: day 7 post infection; for reduction of parasitaemia compared to untreated controls: four mice; on Parasitaemia day 7: key: 0 = no parasite in 20 fields of view; ((+)) = 1 Trypanosome in 20 fields of view; (+) = 1 Trypanosome per field of view; + = 2 - 5 Trypanosomes per field of view; ++ = 6 - 20 Trypanosomes per field of view, the mouse is killed; +++ = > 20 Trypanosomes per field of view, the mouse is killed
# Method: This model mimics the first stage of the human African trypanosomiasis. Adult female NMRI mice were purchased from Janvier (St. Berthevin, France). They weighed between 20 and 25 g at the beginning of the study and were kept under standard conditions at 22 °C and 60-70% humidity in macro Ion type III cages with food pellets and water ad libitum. The samples were first dissolved in 100% DMSO, followed by addition of distilled H2O to a final DMSO concentration of 10%. For determination of the in vivo antitrypanosomal activity, mice were infected intraperitoneally with 1 x 10^4 STIB900 bloodstream forms. […] A control group of four mice was infected, but remained untreated. The determination of the parasitaemia was done on days 7, 10, 14, 17, 21, 24, 28, and 31 post infection. To do this 6 µL of tail blood were diluted in 24 µL sodium citrate (3.2%), whereby the first µL was discarded to obtain circulating blood. Five µL of this mixture were transferred to a glass slide and covered with an 18 x 18 mm cover slide. The sample was examined under a light microscope (200-fold magnification) and parasites were counted in 3 of the 16 squares of the grid.
# [8] = 3 mg/kg per injection, 2 per day, i.p.
# [9] = 3 mg/kg twice a day for 4 days, intraperitoneally
# [10] = 30 mg/kg per injection, 1 per day, p.o.
smiles,measurement,setting,value
"CCCCCCCC[C@H](NC(=O)C1CCc2ccccc2C1)C(=O)N[C@@H](CC(C)C)C(=O)NC(C)(C)C(=O)N[C@@H](CC(C)C)C(=O)N[C@@H](CC(C)C)C(=O)NC(C)(C)C(=O)NC(C)(C)C(=O)NCCC(=O)N[C@@H](C)CN(C)C (stereo partly drawn) [Compound 5944, (2S)-N-[(1S)-1-[(1-{[(1S)-1-{[(1S)-1-{[1-({1-[(2-{[(2S)-1-(dimethylamino)propan-2-yl]carbamoyl}ethyl)carbamoyl]-1-methylethyl}carbamoyl)-1-methylethyl]carbamoyl}-3-methylbutyl]carbamoyl}-3-methylbutyl]carbamoyl}-1-methylethyl)carbamoyl]-3-methylbutyl]-2-[(1,2,3,4-tetrahydronaphthalen-2-yl)formamido]decanamide] (X4-[Gly(octyl)]L[Aib]LL[Aib][Aib][βAla]-{NH((S)CH(Me)CH2NMe2)})",IC50 at 70 h,[1],137 nM
same,IC50,[2],0.1 nM
same,IC50,[3],42500 nM
same,IC50,[4],5 nM
same,IC50,[5],< 36.5 nM
same,IC50,[6],0.6 nM
"CCCCCCCC[C@H](NC(=O)[C@@H]1CCCC[C@@H]1C(=O)c1ccccc1)C(=O)N[C@@H](CC(C)C)C(=O)NC(C)(C)C(=O)N[C@@H](CC(C)C)C(=O)N[C@@H](CC(C)C)C(=O)NC(C)(C)C(=O)NC(C)(C)C(=O)NCCC(=O)N[C@@H](C)CN(C)C [Compound 5945, (2S)-2-{[(1R,2S)-2-benzoylcyclohexyl]formamido}-N-[(1S)-1-[(1-{[(1S)-1-{[(1S)-1-{[1-({1-[(2-{[(2S)-1-(dimethylamino)propan-2-yl]carbamoyl}ethyl)carbamoyl]-1-methylethyl}carbamoyl)-1-methylethyl]carbamoyl}-3-methylbutyl]carbamoyl}-3-methylbutyl]carbamoyl}-1-methylethyl)carbamoyl]-3-methylbutyl]decanamide] (X10-[Gly(octyl)]L[Aib]LL[Aib][Aib][βAla]-{NH((S)CH(Me)CH2NMe2)})",IC50 at 70 h,[1],144 nM
same,IC50,[2],0.4 nM
same,IC50,[3],42600 nM
same,IC50,[4],34.3 nM
same,IC50,[5],< 34.7 nM
same,IC50,[6],42700 nM
"Cc1nc(C(=O)N2CCC[C@H]2C(=O)N[C@@H](CCC2CCCCC2)C(=O)N[C@@H](CC(C)C)C(=O)NC(C)(C)C(=O)N[C@@H](CC(C)C)C(=O)N[C@@H](CC(C)C)C(=O)NC(C)(C)C(=O)NC(C)(C)C(=O)NCCC(=O)NC2(CN(C)C)CCC2)co1 [Compound 6025, (2S)-2-[(2S)-4-cyclohexyl-2-{[(2S)-1-(2-methyl-1,3-oxazole-4-carbonyl)pyrrolidin-2-yl]formamido}butanamido]-N-(1-{[(1S)-1-{[(1S)-1-({1-[(1-{[2-({1-[(dimethylamino)methyl]cyclobutyl}carbamoyl)ethyl]carbamoyl}-1-methylethyl)carbamoyl]-1-methylethyl}carbamoyl)-3-methylbutyl]carbamoyl}-3-methylbutyl]carbamoyl}-1-methylethyl)-4-methylpentanamide] ({Oxazole4CO(2-Me)}-P[hCha]L[Aib]LL[Aib][Aib][βAla]-{NH(1-CH2NMe2-cBu)})",IC50 at 70 h,[1],1910 nM
same,Mean day of relapse,[7]; [8],15 days
same,Mean day of survival,[7]; [8],28 days
same,Day of relapse,[7]; [8],10 day and 17 day (2×)
same,Parasitaemia day 7,[7]; [8],0
same,Parasitaemia day 10,[7]; [8],0 (3×) and ((+)) (((+)) = 1 Trypanosome in 20 fields of view)
same,Parasitaemia day 14,[7]; [8],0
same,Parasitaemia day 17,[7]; [8],"0 and ((+)) (((+)) = 1 Trypanosome in 20 fields of view) and ++ (++ = 6 - 20 Trypanosomes per field of view, the mouse is killed) and (+) ((+) = 1 Trypanosome per field of view)"
same,Parasitaemia day 21,[7]; [8],0 (2×) and (+) ((+) = 1 Trypanosome per field of view)
same,Parasitaemia day 24,[7]; [8],0 (2×) and ((+)) (((+)) = 1 Trypanosome in 20 fields of view)
same,Parasitaemia day 28,[7]; [8],0
same,Parasitaemia day 31,[7]; [8],0 (2×) and (+) ((+) = 1 Trypanosome per field of view)
same,Survival days,[7]; [8],31 days (3×) and 17 days
same,animals surviving treatment,[7]; [9],all animals survived treatment
same,parasitaemia on day 7,[7]; [9],no observable parasitaemia
same,reduction of parasitaemia compared to untreated controls,[7]; [9],significant reduction of parasitaemia
same,animals surviving until day 31,[7]; [9],three out of four
same,animals with no observable parasitaemia at day 31,"[7]; 3 mg/kg twice a day for 4 days, intraperitoneally, of the three survivors",2
same,Mean day of relapse,[7]; [10],15 days
same,Mean day of survival,[7]; [10],21 days
same,Day of relapse,[7]; [10],17 day (2×) and 14 day and 10 day
same,Parasitaemia day 7,[7]; [10],0
same,Parasitaemia day 10,[7]; [10],0 (3×) and ((+)) (((+)) = 1 Trypanosome in 20 fields of view)
same,Parasitaemia day 14,[7]; [10],0 (2×) and (+) ((+) = 1 Trypanosome per field of view) (2×)
same,Parasitaemia day 17,[7]; [10],"+ (+ = 2 - 5 Trypanosomes per field of view); also recorded: ++ (++ = 6 - 20 Trypanosomes per field of view, the mouse is killed)"
same,Parasitaemia day 21,[7]; [10],((+)) (((+)) = 1 Trypanosome in 20 fields of view)
same,Parasitaemia day 24,[7]; [10],(+) ((+) = 1 Trypanosome per field of view)
same,Parasitaemia day 28,[7]; [10],+ (+ = 2 - 5 Trypanosomes per field of view)
same,Parasitaemia day 31,[7]; [10],"+++ (+++ = > 20 Trypanosomes per field of view, the mouse is killed)"
same,Survival days,[7]; [10],20 days and 17 days (2×) and 31 days
same,animals surviving treatment,"[7]; mouse, in vivo, po, 30 mg/kg",all animals survived treatment
same,relapse by day 17,[7]; orally at 30 mg/kg once a day,all had relapsed
same,parasitaemia on day 7,[7]; orally at 30 mg/kg once a day,no observable parasitaemia
same,reduction of parasitaemia compared to untreated controls,[7]; orally at 30 mg/kg once a day,significant reduction of parasitaemia
same,animals surviving until day 31,[7]; orally at 30 mg/kg once a day,one
same,IC50,[2],0.5 nM
same,IC50,[3],20900 nM
same,IC50,[4],215 nM
same,IC50,[5],41.1 nM
same,IC50,[6],31300 nM
